In assay [1] the test system is human cancer cell lines Hs683, U-373MG, HCT-15, LoVo, A549 and MCF-7. The assay is described as follows: MTT test, effect on overall cell growth (mean of six cell lines, examples 3 to 26). Format: cell-based. Conditions: mean of six cell lines Hs683, U-373MG, A549, MCF-7, 72 hours incubation, range of molar concentrations resulting in 50% inhibition of overall tumor cells growth. How it is done:
(§1) MTT tests were performed in order to rapidly, i.e. within 5 days, measure the effect of azonafide derivatives of this invention on the overall cell growth. The test measures the number of metabolically active living cells that are able to transform the yellow product 3-(4,5-dimethylthiazol-2-yl)-2,5-diphenyl tetrazolium bromide (herein referred as MTT) into the blue product formazan dye by mitochondrial reduction. The amount of formazan obtained at the end of the experiment, measured by means of a spectrophotometer, is directly proportional to the number of living cells. Optical density determination thus enables a quantitative measurement of the effect of the investigated compounds as compared to the control condition (untreated cells) and/or to other reference compounds.
(§2) Height human cancer cell lines described in table 1 were used in the following MTT tests. These cell lines cover six histological cancer types, being prostate, glioma, pancreas, colon, lung and breast cancers. Cells were allowed to grow in 96-well micro-wells with a flat bottom with an amount of 100 μl of cell suspension per well with 1,000 to 4,000 cells/well depending on the cell type used. Each cell line was seeded in a well known MEM 5% serum culture medium.
(§3) The detailed experimental procedure was as following: after a 24-hour period of incubation at 37° C., the culture medium was replaced by 100 μl of fresh medium in which the compound to be tested was dissolved at the following molar concentrations: 10^−9 M, 5.10^−9 M, 10^−8 M, 5.10^−8 M, 10^−7 M, 5.10^−7 M, 10^−6 M, 5.10^−6 M and 10^−5 M. Each experiment was repeated 6 times.
(§4) After 72 hours of incubation at 37° C. with (experimental conditions) or without (control condition) the compound to be tested, the medium was replaced by 100 μl MTT dissolved in RPMI at a concentration of 1 mg/ml. The micro-wells were subsequently incubated during 3 hours at 37° C. and centrifuged at 400 g during 10 minutes. MTT was removed and formazan crystals formed were dissolved in 100 μl DMSO. The micro-wells were shaken for 5 minutes and read on a spectrophotometer at wavelengths of 570 nm (maximum formazan absorbance) and 630 nm (back-ground noise).
(§5) For each experimental condition, the mean optical density was calculated, as well as the percentage of remaining living cells in comparison with the control.
(§6) IC50 values for compounds of examples 3 to 26 were obtained on cell lines Hs683, U-373MG, HCT-15, LoVo, A549 and MCF-7 described in Table 1. IC50 values for compounds from examples 27 to 45 were obtained on cell lines PC3, U-373MG, BxPC3, LoVo, A549 and MCF-7 described in Table 1.

In assay [2] the test system is U-373 MG (Glioma cancer) cells. The assay can be described thus: Effect on cell migration, U-373MG. It counts as cell-based. Conditions: Homo sapiens, U373 MG, p value in same cell, read-out: Maximum effects (cell migration); for Emax at 1 µM: at 10^−6 M; for Emax at 0.1 µM: at 10^−7 M. How it is done: (§7) Cells of different cancer lines, i.e. U-373 MG (Glioma cancer), PC3 (prostate cancer and A549 (Lung cancer) were seeded on culture flask 48 hours before the migration experiment. On the test day, cells were treated with or without the azonafide derivatives mentioned in table 3 in closed Falcon dishes containing a buffered medium at a controlled temperature (37.0±0.1° C.) for 12 or 22 hours, as noted in the right column of table 3. The azonafide derivatives were used at three non-cytotoxic concentrations (10^−6 M, 10^−7, 10^−8 M). Migration of the cells was observed by means of a CCD-camera mounted on a phase-contrast microscope. Statistical analysis of the migration, with the non-parametric Mann-Whitney test, was established for 25% and 50% of the most motile cells and for the entire cell population.

The test system of assay [3] is PC3 (prostate cancer) cells. The assay can be described thus: Effect on cell migration, PC3. It counts as cell-based. Conditions: Homo sapiens, 22 hours on the 25% of most motile cells, p value in same cell, read-out: Maximum effects (cell migration); for Emax at 0.01 µM: at 10^−8 M. As to the method: as §7
For assay [4], the system named is U-373 MG, PC-3 and/or A549 cancer cells. The assay can be described thus: Effect on cell migration, summary of table 3. It counts as cell-based, human. Particulars: for migration level of cancer cells: U-373 MG, PC-3 and/or A549 cancer cells at the non-cytotoxic concentrations of this study; for cell migration activity compared with the closest compounds known in the art: comparison drawn from table 3. As to the method: as §7

For the next assay, the system named is A549 (Lung cancer) cells. The assay is described as follows: Effect on cell migration, A549. Format: cell-based. Particulars: Homo sapiens, p value in same cell, read-out: Maximum effects (cell migration); for Emax at 1 µM: at 10^−6 M; for Emax at 0.1 µM: at 10^−7 M. How it is done: as §7
The test system of assay [5] is human cancer cell lines PC3, U-373MG, BxPC3, LoVo, A549 and MCF-7. The assay is described as follows: MTT test, effect on overall cell growth (mean of six cell lines, examples 27 to 45). Format: cell-based. Particulars: mean of six cell lines PC3, U-373MG, A549, MCF-7, 72 hours incubation, range of molar concentrations resulting in 50% inhibition of overall tumor cells growth. As to the method:
as §1, §2, §3, §4, §5, §6
Background: Tetrazolium assays rely on reduction of a dye to a coloured formazan, in cell work by metabolically active cells.

[6] abbreviates: 22 hours on the 25% of most motile cells.

SMILES strings stand for the structures. pIC50: −log10 of the molar value. Structures can show the parent of a compound that is named as a salt. Where two headings read alike, the source gives them in different places. Bounds are passed on as bounds.

The term pIC50 denotes −log10 of the IC50, conventionally taken in molar units. A low value points to a high IC50. Consider `CN(C)CCN1C(=O)c2cccc3cc4cccc(N)c4c(c23)C1=O` [Example 3, 11-amino-2-[2-(dimethylamino)ethyl]-1H-dibenzo[de,h]isoquinoline-1,3(2H)-dione, reference compound], for which the pIC50 in assay [1] is 5.00 to 5.30. Also, in assay [2] (setting [6]), the Emax at 1 µM was -31%.

Take `CN(C)CCN1C(=O)c2cccc3cc4c(/N=C/c5ccc6c(c5)OCO6)cccc4c(c23)C1=O` [Example 8, 8-{[(1E)-1,3-benzodioxol-5-ylmethylidene]amino}-2-[2-(dimethylamino)ethyl]-1H-dibenzo[de,h]isoquinoline-1,3(2H)-dione]: in assay [3], the Emax at 0.01 µM is -29%. Also, in assay [4], the “migration level of cancer cells” value was “induced a decrease in the migration level” and the “cell migration activity compared with the closest compounds known in the art” value is “significantly greater cell migration activity than the closest compounds known in the art, or similar cell migration activity at significantly lower concentrations”. In assay [1], this compound had a pIC50 of 5.30 to 6.00. The Emax at 1 µM in assay [2] (setting [6]) was -30%.

For `COC(=O)Nc1cccc2cc3cccc4c3c(c12)C(=O)N(CCN(C)C)C4=O` [Example 9, methyl {2-[2-(dimethylamino)ethyl]-1,3-dioxo-2,3-dihydro-1H-dibenzo[de,h]isoquinolin-11-yl}carbamate], the Emax at 1 µM in the assay with A549 (Lung cancer) cells (12 hours on the 25% of most motile cells) is -40%; with A549 (Lung cancer) cells (setting [6]), -28%. Besides, the “migration level of cancer cells” value in assay [4] is on record as “induced a decrease in the migration level”. Also, the “cell migration activity compared with the closest compounds known in the art” value in assay [4] is reported as “significantly greater cell migration activity than the closest compounds known in the art, or similar cell migration activity at significantly lower concentrations”. The compound further gave a pIC50 in assay [1] of 5.00 to 5.30. Also, the Emax at 0.1 µM in assay [2] (12 and 22 hours on the 25% of most motile cells) is -31%.

Regarding `CN(C)CCN1C(=O)c2cccc3cc4cccc(NC(=O)CCCCl)c4c(c23)C1=O` [Example 10, 4-chloro-N-{2-[2-(dimethylamino)ethyl]-1,3-dioxo-2,3-dihydro-1H-dibenzo[de,h]isoquinolin-11-yl}butanamide], in the assay on A549 (Lung cancer) cells (setting [6]), the Emax at 1 µM is -24%. For the same compound, the “migration level of cancer cells” value in assay [4] is reported as “induced a decrease in the migration level”. In assay [1], this compound showed a pIC50 of 5.30 to 6.00.

As for `CN(C)CCN1C(=O)c2cccc3cc4cccc(NC(=O)Nc5ccc6c(c5)OCO6)c4c(c23)C1=O` [Example 12, 1-(1,3-benzodioxol-5-yl)-3-{2-[2-(dimethylamino)ethyl]-1,3-dioxo-2,3-dihydro-1H-dibenzo[de,h]isoquinolin-11-yl}urea], the “migration level of cancer cells” value in assay [4] is listed as “induced a decrease in the migration level”. Also, in assay [1], the pIC50 is 5.00 to 5.30. Further, the Emax at 0.1 µM in assay [2] (setting [6]) was -20%.

Regarding `CN(C)CCN1C(=O)c2cccc3cc4c(NC(=O)Nc5ccc6c(c5)OCO6)cccc4c(c23)C1=O` [Example 14, 1-(1,3-benzodioxol-5-yl)-3-{2-[2-(dimethylamino)ethyl]-1,3-dioxo-2,3-dihydro-1H-dibenzo[de,h]isoquinolin-8-yl}urea], in the assay with A549 (Lung cancer) cells (setting [6]), the Emax at 1 µM is -24%. In addition, in assay [4], the “migration level of cancer cells” value was “induced a decrease in the migration level”. Moreover, in assay [1], the pIC50 is less than 5.00.

In the case of `CN(C)CCN1C(=O)c2cccc3cc4c(NC(=O)Nc5ccc6c(c5)OCO6)cccc4c(c23)C1=O` [Example 15, 1-(1,3-benzodioxol-5-yl)-3-{2-[2-(dimethylamino)ethyl]-1,3-dioxo-2,3-dihydro-1H-dibenzo[de,h]isoquinolin-8-yl}urea hydrochloride], the “cell migration activity compared with the closest compounds known in the art” value in assay [4] is “significantly greater cell migration activity than the closest compounds known in the art, or similar cell migration activity at significantly lower concentrations”. Also, the Emax at 1 µM in assay [2] (setting [6]) was -51%.

Consider `CCOC(=O)Nc1cccc2cc3cccc4c3c(c12)C(=O)N(CCN(C)C)C4=O` [Example 17, ethyl {2-[2-(dimethylamino)ethyl]-1,3-dioxo-2,3-dihydro-1H-dibenzo[de,h]isoquinolin-11-yl}carbamate], for which the Emax at 0.1 µM with A549 (Lung cancer) cells (setting [6]) was -44%. Besides, in assay [4], the “migration level of cancer cells” value is given as “induced a decrease in the migration level” and the “cell migration activity compared with the closest compounds known in the art” value is “significantly greater cell migration activity than the closest compounds known in the art, or similar cell migration activity at significantly lower concentrations”. The pIC50 in assay [1] was less than 5.00. For the same compound, in assay [2] (setting [6]), the Emax at 0.1 µM was -42%.

On to `CN(C)CCN1C(=O)c2cccc3cc4cccc(NC(=O)Oc5ccc(F)cc5)c4c(c23)C1=O` [Example 24, 4-fluorophenyl {2-[2-(dimethylamino)ethyl]-1,3-dioxo-2,3-dihydro-1H-dibenzo[de,h]isoquinolin-11-yl}carbamate], for which the Emax at 0.01 µM in the assay with A549 (Lung cancer) cells (22 hours on the 25% of most motile cells, at 10^−8 M) was -31%. For the same compound, in assay [4], the “migration level of cancer cells” value is on record as “induced a decrease in the migration level” and the “cell migration activity compared with the closest compounds known in the art” value is “significantly greater cell migration activity than the closest compounds known in the art, or similar cell migration activity at significantly lower concentrations”. Moreover, the pIC50 in assay [1] is less than 5.00.

As for `CCCCCCCCOC(=O)Nc1cccc2cc3cccc4c3c(c12)C(=O)N(CCN(C)C)C4=O` [Example 25, octyl {2-[2-(dimethylamino)ethyl]-1,3-dioxo-2,3-dihydro-1H-dibenzo[de,h]isoquinolin-11-yl}carbamate], in assay [3], the Emax at 0.01 µM was -21%. For the same compound, in the assay on A549 (Lung cancer) cells (setting [6]), the Emax at 0.1 µM is -28%. Besides, in assay [4], the “migration level of cancer cells” value is “induced a decrease in the migration level”. This compound gave a pIC50 in assay [1] of 5.00 to 5.30.

Turning to `CC(C)COC(=O)Nc1cccc2cc3cccc4c3c(c12)C(=O)N(CCN(C)C)C4=O` [Example 27, isobutyl {2-[2-(dimethylamino)ethyl]-1,3-dioxo-2,3-dihydro-1H-dibenzo[de,h]isoquinolin-11-yl}carbamate], in the assay on A549 (Lung cancer) cells (setting [6]), the Emax at 1 µM was -28%. Also, the “migration level of cancer cells” value in assay [4] is “induced a decrease in the migration level”. This compound had a pIC50 in assay [5] of less than 5.00.

As for `CCCCOC(=O)Nc1cccc2cc3cccc4c3c(c12)C(=O)N(CCN(C)C)C4=O` [Example 29, n-butyl {2-[2-(dimethylamino)ethyl]-1,3-dioxo-2,3-dihydro-1H-dibenzo[de,h]isoquinolin-11-yl}carbamate], in assay [3] (at 10^−6 M), the Emax at 1 µM was -22%. Moreover, in the assay with A549 (Lung cancer) cells (setting [6]), the Emax at 0.1 µM was -33%. In assay [4], the “migration level of cancer cells” value is on record as “induced a decrease in the migration level” and the “cell migration activity compared with the closest compounds known in the art” value was “significantly greater cell migration activity than the closest compounds known in the art, or similar cell migration activity at significantly lower concentrations”. The compound further had a pIC50 in assay [5] of less than 5.00.
